Reference: paper PMC3176174 (OncoTargets and therapy, 2011)

Tests used:
Assay in all cases: cells
Assay type in all cases: cell-based, human
MOLT-3 cell line = tested on: MOLT-3 cell line
B1 cell line = tested on: B1 cell line
KOPN8 cell line = tested on: KOPN8 cell line
TIB-202 cell line = tested on: TIB-202 cell line
SEM cell line = tested on: SEM cell line

| SMILES | IC50 (MOLT-3 cell line; Homo sapiens, MOLT-3, 96 h) | IC50 (B1 cell line; Homo sapiens, 96 h) | IC50 (KOPN8 cell line; Homo sapiens, KOPN-8) | IC50 (TIB-202 cell line; Homo sapiens, 96 h) | IC50 (SEM cell line; Homo sapiens, 96 h) | IC50 (KOPN8 cell line; Homo sapiens, KOPN-8, 96 h) | IC50 (MOLT-3 cell line; Table S1, MOLT-3, 96 hours) | IC50 (B1 cell line; Table S1, B1, 96 hours) | IC50 (KOPN8 cell line; Table S1, KOPN8, 96 hours) | IC50 (TIB-202 cell line; Table S1, TIB-202, 96 hours) | IC50 (SEM cell line; Table S1, SEM, 96 hours) |
| --- | --- | --- | --- | --- | --- | --- | --- | --- | --- | --- | --- |
| CCN(CC)CCCC(C)Nc1c2ccc(Cl)cc2nc2ccc(OC)cc12 (stereo not shown) [Acrichine] | 4.07 µM | 4.63 µM | 0.722 µM | 4.5 µM | 6.4 µM | – | – | – | – | – | – |
| Oc1ncnc2[nH]ncc12 [Allopurinol] | > 10 µM | > 10 µM | – | > 5 µM | > 10 µM | > 5 µM | – | – | – | – | – |
| CN(C)c1nc(N(C)C)nc(N(C)C)n1 [Altretamine] | > 10 µM | > 10 µM | – | > 10 µM | > 10 µM | > 10 µM | – | – | – | – | – |
| NCCCNCCSP(=O)(O)O [Amifostine] | > 10 µM | > 10 µM | – | > 10 µM | > 10 µM | > 10 µM | – | – | – | – | – |
| NCC(=O)CCC(=O)O [Aminolevulinic acid] | > 10 µM | > 10 µM | – | > 10 µM | > 10 µM | > 10 µM | – | – | – | – | – |
| CC(C)(C#N)c1cc(Cn2cncn2)cc(C(C)(C)C#N)c1 [Anastrozole] | > 10 µM | > 10 µM | – | > 10 µM | 2.08 µM | > 10 µM | – | – | – | – | – |
| Nc1ncn([C@@H]2O[C@H](CO)[C@@H](O)[C@H]2O)c(=O)n1 [Azacitidine] | 6.21 µM | 5.07 µM | – | 5.2 µM | 1.3 µM | 0.836 µM | – | – | – | – | – |
| CC(C)C[C@H](NC(=O)[C@H](Cc1ccccc1)NC(=O)c1cnccn1)B(O)O [Bortezomib] | > 10 µM | 0.00397 µM | – | 0.00571 µM | < 0.01 µM | < 0.01 µM | – | – | – | – | – |
| CS(=O)(=O)OCCCCOS(C)(=O)=O [Busulfan] | 6.36 µM | > 10 µM | – | > 5 µM | > 10 µM | > 5 µM | – | – | – | – | – |
| CCCCCOC(=O)Nc1nc(=O)n([C@@H]2O[C@H](C)[C@@H](O)[C@H]2O)cc1F [Capecitabine] | > 10 µM | > 10 µM | – | > 10 µM | > 10 µM | > 10 µM | – | – | – | – | – |
| O=NN(CCCl)C(=O)NCCCl [Carmustine] | > 10 µM | > 10 µM | – | > 5 µM | > 10 µM | > 5 µM | – | – | – | – | – |
| Cc1ccc(-c2cc(C(F)(F)F)nn2-c2ccc(S(N)(=O)=O)cc2)cc1 [Celecoxib] | > 10 µM | > 10 µM | – | > 10 µM | > 10 µM | > 10 µM | – | – | – | – | – |
| O=C(O)CCCc1ccc(N(CCCl)CCCl)cc1 [Chlorambucil] | 5.56 µM | 6.41 µM | – | 4.47 µM | 7.29 µM | 3.38 µM | – | – | – | – | – |
| N.N.[Cl][Pt][Cl] [Cisplatin] | – | – | – | – | – | – | > 10 µM | > 10 µM | > 5 µM | > 5 µM | > 10 µM |
| O=P1(N(CCCl)CCCl)NCCCO1 (stereo not shown) [Cyclophosphamide] | > 10 µM | > 10 µM | – | > 5 µM | > 10 µM | > 5 µM | – | – | – | – | – |
| CN(C)/N=N/c1[nH]cnc1C(N)=O [Dacarbazine] | > 10 µM | > 10 µM | – | > 10 µM | > 10 µM | > 10 µM | – | – | – | – | – |
| Cc1nc(Nc2ncc(C(=O)Nc3c(C)cccc3Cl)s2)cc(N2CCN(CCO)CC2)n1 [Dasatinib] | > 10 µM | < 1e-06 µM | – | < 1e-06 µM | 4.05 µM | 0.00748 µM | – | – | – | – | – |
| C[C@@H](CN1CC(=O)NC(=O)C1)N1CC(=O)NC(=O)C1 [Dexrazoxone] | > 10 µM | > 10 µM | – | > 5 µM | > 10 µM | > 5 µM | – | – | – | – | – |

| SMILES | IC50 (MOLT-3 cell line; Homo sapiens, MOLT-3, 96 h) | IC50 (B1 cell line; Homo sapiens, 96 h) | IC50 (KOPN8 cell line; Homo sapiens, KOPN-8) | IC50 (TIB-202 cell line; Homo sapiens, 96 h) | IC50 (SEM cell line; Homo sapiens, 96 h) | IC50 (KOPN8 cell line; Homo sapiens, KOPN-8, 96 h) | IC50 (MOLT-3 cell line; Table S1, MOLT-3, 96 hours) | IC50 (B1 cell line; Table S1, B1, 96 hours) | IC50 (KOPN8 cell line; Table S1, KOPN8, 96 hours) | IC50 (TIB-202 cell line; Table S1, TIB-202, 96 hours) | IC50 (SEM cell line; Table S1, SEM, 96 hours) |
| --- | --- | --- | --- | --- | --- | --- | --- | --- | --- | --- | --- |
| COc1cccc2c1C(=O)c1c(O)c3c(c(O)c1C2=O)C[C@@](O)(C(=O)CO)C[C@@H]3O[C@H]1C[C@H](N)[C@H](O)[C@H](C)O1 [Doxorubicin] | 7.84 µM | 0.12 µM | – | 0.0585 µM | < 0.01 µM | < 0.01 µM | – | – | – | – | – |
| C#Cc1cccc(Nc2ncnc3cc(OCCOC)c(OCCOC)cc23)c1 [Erlotinib] | 5.7 µM | 2.98 µM | – | 6.68 µM | 1 µM | 5.82 µM | – | – | – | – | – |
| C[C@]12CC[C@@H]3c4ccc(OC(=O)N(CCCl)CCCl)cc4CC[C@H]3[C@@H]1CC[C@@H]2O [Estramustine] | > 10 µM | > 10 µM | – | > 10 µM | > 10 µM | > 10 µM | – | – | – | – | – |
| CO[C@H]1C[C@@H]2CC[C@@H](C)[C@@](O)(O2)C(=O)C(=O)N2CCCC[C@H]2C(=O)O[C@H]([C@H](C)C[C@@H]2CC[C@@H](OCCO)[C@H](OC)C2)CC(=O)[C@H](C)/C=C(\C)[C@@H](O)[C@@H](OC)C(=O)[C@H](C)C[C@H](C)/C=C/C=C/C=C/1C [Everolimus] | > 10 µM | 0.834 µM | – | < 0.01 µM | < 0.01 µM | < 0.01 µM | – | – | – | – | – |
| C=C1C[C@@H]2[C@H](CC[C@]3(C)C(=O)CC[C@@H]23)[C@@]2(C)C=CC(=O)C=C12 [Exemestane] | > 10 µM | > 10 µM | – | > 10 µM | 2.08 µM | 8.89 µM | – | – | – | – | – |
| O=c1[nH]c(=O)n([C@H]2C[C@H](O)[C@@H](CO)O2)cc1F [Floxuridine] | > 10 µM | 8.48 µM | – | > 5 µM | > 10 µM | > 5 µM | – | – | – | – | – |
| O=c1[nH]cc(F)c(=O)[nH]1 [Fluorouracil] | 7.11 µM | > 10 µM | – | > 5 µM | > 10 µM | > 5 µM | – | – | – | – | – |
| C[C@]12CC[C@@H]3c4ccc(O)cc4C[C@@H](CCCCCCCCC[S+]([O-])CCCC(F)(F)C(F)(F)F)[C@H]3[C@@H]1CC[C@@H]2O (stereo partly shown) [Fulvestrant] | > 10 µM | > 10 µM | – | > 10 µM | > 10 µM | 7.64 µM | – | – | – | – | – |
| NC(=O)NO [Hydroxyurea] | – | – | – | – | – | – | > 10 µM | > 10 µM | > 5 µM | > 5 µM | > 10 µM |
| O=P1(NCCCl)OCCCN1CCCl (stereo not shown) [Ifosfamide] | > 10 µM | > 10 µM | – | > 5 µM | > 10 µM | > 5 µM | – | – | – | – | – |
| CC(C)Cn1cnc2c(N)nc3ccccc3c21 [Imiquimod] | > 10 µM | > 10 µM | – | > 10 µM | > 10 µM | 2.9 µM | – | – | – | – | – |
| CCc1c2c(nc3ccc(OC(=O)N4CCC(N5CCCCC5)CC4)cc13)-c1cc3c(c(=O)n1C2)COC(=O)[C@]3(O)CC [Irinotecan] | 3.92 µM | 2.29 µM | – | 2.53 µM | 3.4 µM | 1.69 µM | – | – | – | – | – |
| CS(=O)(=O)CCNCc1ccc(-c2ccc3ncnc(Nc4ccc(OCc5cccc(F)c5)c(Cl)c4)c3c2)o1 [Lapatinib] | > 10 µM | 5.7 µM | – | 7.42 µM | 4.73 µM | 5.2 µM | – | – | – | – | – |
| Nc1cccc2c1CN(C1CCC(=O)NC1=O)C2=O (stereo not shown) [Lenalidomide] | 10 µM | > 10 µM | – | > 10 µM | > 10 µM | > 10 µM | – | – | – | – | – |
| N#Cc1ccc(C(c2ccc(C#N)cc2)n2cncn2)cc1 [Letrozole] | > 10 µM | > 10 µM | – | > 10 µM | > 10 µM | > 10 µM | – | – | – | – | – |
| O=NN(CCCl)C(=O)NC1CCCCC1 [Lomustine] | > 10 µM | 8.32 µM | – | > 5 µM | 9.35 µM | > 5 µM | – | – | – | – | – |
| CC(=O)O[C@]1(C(C)=O)CC[C@H]2[C@@H]3C=C(C)C4=CC(=O)CC[C@]4(C)[C@H]3CC[C@@]21C [Megestrol acetate] | > 10 µM | > 10 µM | – | > 5 µM | > 10 µM | > 5 µM | – | – | – | – | – |
